# Legend:
# [1] = system: PTK2 high ovarian PDX OV2423; assay: PTK2 high ovarian PDX model OV2423, Compound 5 and carboplatin and/or paclitaxel; format: in vivo, mouse; conditions: for RTV on Day 28 after administration (mean ± standard error) / T/C on Day 28 after administration (%): Compound 5 50 mg/kg orally once per day, carboplatin 30 mg/kg i.p. once a week, paclitaxel 10 mg/kg i.v. once a week, 28 days; for mRECIST: animals per class; for antitumor activity (conclusion in words): mouse, in vivo
# Procedure: (§1) A subcutaneous xenograft tumor model of human tumor immunodeficient mice was established by cell inoculation: tumor cells in logarithmic growth phase were collected, counted, resuspended in 1×PBS, and the cell suspension concentration was adjusted to 2.5-5 ×10^7/mL. The tumor cells were inoculated subcutaneously in the right side of immunodeficient mice with a 1 mL syringe ([…]), 5-10×10^6/0.2 mL/mouse. All animal experiments were strictly in accordance with the specifications for the use and management of experimental animals in GenePharma Co., Ltd. and Suzhou Ascentage Pharma Co., Ltd. The calculation of relevant parameters refers to the Chinese NMPA “Guidelines for Non-Clinical Research Techniques of Cytotoxic Anti-tumor Drugs”.
# (§2) Animal body weight and tumor size were measured twice weekly during the experiment. The state of the animal and the presence or absence of death were observed every day. The growth of tumor and the effects of treatment on normal behavior of animals were monitored routinely, specifically involving experimental animal activity, feeding and drinking, weight gain or loss, eyes, clothing hair and other abnormalities. The deaths and clinical symptoms observed during the experiment were recorded in the raw data. All operations for administration and measurement of mouse body weight and tumor volume were performed in a clean bench. According to the requirements of the experimental protocol, after the end of the last administration, plasma and tumor tissues were collected, weighed and photographed. The plasma and tumor samples were frozen at −80° C. for ready-to-use.
# (§3) Tumor volume (TV) is calculated as: TV=a×b^2/2, wherein a and b represent the length and width of the tumor to be measured, respectively.
# (§4) The relative tumor volume (RTV) is calculated as: RTV=Vt/V1, wherein V1 is the tumor volume at the start of grouping and administration, and Vt is the tumor volume measured on the t day after administration.
# (§5) Change of body weight (%)=(measured body weight−body weight at the start of grouping)/body weight at the start of grouping×100%.
# (§6) A dose of drug is considered to be severely toxic if the body weight of mouse is reduced by more than 20% or the number of drug-related deaths exceeds 20%.
# (§7) According to the description by Clarke R., Issues in experimental design and endpoint analysis in the study of experimental cytotoxic agents in vivo in breast cancer and other models [J]. Breast Cancer Research & Treatment, 1997, 46(2-3): 255-278, synergy analysis was evaluated using the following formula: synergy factor=((A/C)×(B/C))/(AB/C); A=RTV value of drug A alone group; B=RTV value of drug B alone group; C=RTV value of the solvent control group, and AB=RTV value of the A and B combination group.
# (§8) Use of mRECIST (Gao et al., 2015) measured tumor responses included stable disease (SD), partial tumor regression (PR), and complete regression (CR), determined by comparing tumor volume change at day t to its baseline: tumor volume change (%)=(Vt−V1)/V1. The BestResponse was the minimum value of tumor volume change (%) for t≥10. For each time t, the average of tumor volume changes from t=1 to t was also calculated. BestAvgResponse was defined as the minimum value of this average for t≥10. The criteria for response (mRECIST) were adapted from RECIST criteria (Gao et al., 2015; Therasse et al., 2000) and defined as follows: mCR, BestResponse<−95% and BestAvg Response<−40%; mPR, BestResponse<−50% and BestAvgResponse<−20%; mSD, BestResponse<35% and BestAvgResponse<30%; mPD, not otherwise categorized. SD, PR, and CR were considered responders and used to calculate response rate (%). […] Body weight of animals were monitored simultaneously. The change in body weight was calculated based on the animal weight of the first day of dosing (day 1). Tumor volume and changes in body weight (%) were represented as the mean±standard error of the mean (SEM).
# [2] = system: ovarian PDX OV1658; assay: Ovarian PDX model OV1658, Compound 5 and carboplatin and/or paclitaxel; format: in vivo, mouse; conditions: for RTV on Day 19 after administration (mean ± standard error) / T/C on Day 19 after administration (%): Compound 5 50 mg/kg orally once per day, carboplatin 30 mg/kg i.p. once a week, paclitaxel 10 mg/kg i.v. once a week, 19 days; for mRECIST on Day 19 after administration: Day 19, animals per class; for mRECIST: best response, animals per class; for antitumor activity (conclusion in words): mouse, in vivo
# Procedure: as §1, §2, §3, §4, §5, §6, §7, §8
# [3] = system: PTK2 high NSCLC PDX LU-01-0604; assay: s.c. PTK2 high NSCLC PDX model LU-01-0604, Compound 5 and carboplatin; format: in vivo, mouse
# Procedure: as §1, §2, §3, §4
# (§9) The evaluation index of anti-tumor activity is the relative tumor proliferation rate T/C (%), and the calculation formula thereof is: relative tumor proliferation rate T/C (%)=(TRTV/CRTV)×100%, TRTV is the RTV of treatment group, CRTV is the RTV of solvent control group.
# as §5, §6, §7
# as §8, with “The change in body weight was calculated based on the animal weight of the first day of dosing (day 1). Tumor volume and changes in body weight (%) were represented as the mean±standard error of the mean (SEM).” left out
# [4] = system: ovarian PA-1 xenograft; assay: s.c. ovarian PA-1 xenograft tumor model, Compound 5 and carboplatin; format: in vivo, mouse; conditions: Compound 5 100 mg/kg orally once per day 21 days, carboplatin 50 mg/kg i.p. once on Day 1
# Procedure: as §1, §2, §3, §4, §9, §5, §6, §7
# Use of mRECIST (Gao et al., 2015) measured tumor responses included stable disease (SD), partial tumor regression (PR), and complete regression (CR), determined by comparing tumor volume change at day t to its baseline: tumor volume change (%)=(Vt−V1)/V1. The BestResponse was the minimum value of tumor volume change (%) for t≥10. For each time t, the average of tumor volume changes from t=1 to t was also calculated. […] Body weight of animals were monitored simultaneously. […]
# [5] = system: PTK2 high ovarian PDX OV1385; assay: PTK2 high ovarian PDX model OV1385, Compound 5 and carboplatin and/or paclitaxel; format: in vivo, mouse; conditions: for RTV on Day 35 after administration (mean ± standard error) / T/C on Day 35 after administration (%): Compound 5 50 mg/kg orally once per day, carboplatin 30 mg/kg i.p. once a week, paclitaxel 10 mg/kg i.v. once a week, 35 days; for mRECIST on Day 35 after administration: Day 35, animals per class; for antitumor activity (conclusion in words): mouse, in vivo
# Procedure: as §1, §2, §3, §4, §5, §6, §7, §8
# [6] = system: NCI-H2228 tumor cells; assay: Cell viability WST (CCK-8) assay, combination of Compound 5 and Compound 34; format: cell-based; conditions: Homo sapiens, 72 hours, single agent, read-out: Compound B IC50
# Procedure: Cell plating: Anti-proliferative effects were detected by a CCK-8 (Cell Counting Kit-8, Shanghai life iLab, China) assay based on water soluble tetrazolium salt (WST). The cells were seeded in 96-well plates, and only 95 μL of complete medium was added to each negative control group. 95 μL of complete medium cell suspension was added to each well to be tested, and the cell density was (5-10)×10^4/hole. Dosing (protection from light): […] After 72 hours of action by using 6 different concentrations of Compound 34 with 3 fixed doses of Compound 5, the combination effect of Compound 5 an Compound 34 was tested. Reading: […] The plates were continuously incubated at 37 ° C. for 2-4 hours in a CO2 incubator. The OD values were measured using a microplate reader (SpectraMax Plus 384, Molecular Devices, LLC., US) under A450 nm. […] (O.D. of test well−O.D. of blank control well)/(O.D. of cell control well−O.D. of blank control well)×100%. IC50 values were calculated using Graphpad Prism 6.0 software for nonlinear regression data analysis method.
# [7] = system: PTK2 high ovarian PDX OV2018; assay: PTK2 high ovarian PDX model OV2018, Compound 5 and paclitaxel; format: in vivo, mouse
# Procedure: as §1, §2, §3, §4, §5, §6, §7, §8
# [8] = system: OVCAR3 s.c. ovarian xenograft; assay: OVCAR3 s.c. ovarian xenograft model, overcoming resistance to paclitaxel / paclitaxel and carboplatin; format: in vivo, mouse
# Procedure: as §1
# Animal body weight and tumor size were measured twice weekly during the experiment. The state of the animal and the presence or absence of death were observed every day. The growth of tumor and the effects of treatment on normal behavior of animals were monitored routinely, specifically involving experimental animal activity, feeding and drinking, weight gain or loss, eyes, clothing hair and other abnormalities. The deaths and clinical symptoms observed during the experiment were recorded in the raw data. […] The plasma and tumor samples were frozen at −80° C. for ready-to-use.
# as §3, §4
# Change of body weight (%)=(measured body weight−body weight at the start of grouping)/body weight at the start of grouping×100%. […]
# Use of mRECIST (Gao et al., 2015) measured tumor responses included stable disease (SD), partial tumor regression (PR), and complete regression (CR), determined by comparing tumor volume change at day t to its baseline: tumor volume change (%)=(Vt−V1)/V1. […]
# [9] = system: OVCAR3 s.c. ovarian xenograft; format: in vivo
# Procedure: as §1, §2, §3, §4, §5, §6, §7, §8
# [10] = system: A549 NSCLC xenograft; assay: s.c. A549 NSCLC lung cancer model, Compound 5 and panobinostat; format: in vivo, mouse; conditions: Compound 5 100 mg/kg orally once per day, panobinostat 3 mg/kg i.p. 5 days then 2 days break, 14 days
# [11] = Compound 5 50 mg/kg orally once per day, carboplatin 30 mg/kg i.p. once per week, 29 days
# [12] = Compound 5 50 mg/kg orally once per day, paclitaxel 10 mg/kg i.v. once a week, 35 days
# [13] = best response, animals per class
# [14] = Compound 5 100 mg/kg orally once per day, paclitaxel 10 mg/kg i.v. once a week, carboplatin 30 mg/kg i.v. once a week
SMILES,RTV on Day 28 after administration (mean ± standard error) [1],T/C on Day 28 after administration (%) [1],mRECIST [1],antitumor activity (conclusion in words) [1],RTV on Day 19 after administration (mean ± standard error) [2],T/C on Day 19 after administration (%) [2],mRECIST on Day 19 after administration [2],mRECIST [2],antitumor activity (conclusion in words) [2],RTV on Day 35 after administration (mean ± standard error) [5],T/C on Day 35 after administration (%) [5],mRECIST on Day 35 after administration [5],antitumor activity (conclusion in words) [5],also measured
"N.N.O=C([O-])C1(C(=O)[O-])CCC1.[Pt+2] [Carboplatin, carboplatin]",8.97 ± 1.24,47.76%,2/2 PD,moderate antitumor activity,9.34 ± 2.01,68.37%,2/2 PD,2/2 PD,minor antitumor activity,2.08 ± 0.49,51.49%,2/2 PD,moderate antitumor activity,"RTV on Day 29 after administration (mean ± standard error) [3, 11]: 11.15 ± 6.55; T/C on Day 29 after administration (%) [3, 11]: 127.72%; antitumor activity (conclusion in words) ([3]; mouse, in vivo): no antitumor activity; RTV on Day 22 after administration (mean ± standard error) [4]: 15.1 ± 2.3; T/C on Day 22 after administration (%) [4]: 94.97%"
Cc1ccc(C(=O)Nc2ccc(CN3CCN(C)CC3)c(C(F)(F)F)c2)cc1C#Cc1cnc2[nH]ncc2c1 [Compound 34],,,,,,,,,,,,,,IC50 [6]: 1680 nM
"CC(=O)O[C@H]1C(=O)[C@@]2(C)[C@H]([C@H](OC(=O)c3ccccc3)[C@]3(O)C[C@H](OC(=O)[C@H](O)[C@@H](NC(=O)c4ccccc4)c4ccccc4)C(C)=C1C3(C)C)[C@]1(OC(C)=O)CO[C@@H]1C[C@@H]2O [Paclitaxel, paclitaxel]",9.54 ± 1.73,50.80%,2/2 PD,moderate antitumor activity,11.79,86.31%,2/2 PD,2/2 PD,minor antitumor activity,1.80 ± 0.75,44.55%,2/2 PD,moderate antitumor activity,"RTV on Day 35 after administration (mean ± standard error) [7, 12]: 2.87 ± 0.24; T/C on Day 35 after administration (%) [7, 12]: 118.60%; mRECIST on Day 35 after administration ([7]; Day 35, animals per class): 2/2 PD; mRECIST [7, 13]: 2/2 PD; antitumor activity (conclusion in words) ([7]; mouse, in vivo): no antitumor activity; DCR (%) ([8]; mouse, in vivo): 20%; ORR (%) ([8]; mouse, in vivo): 0%; RTV on Day 56 after administration (mean ± standard error) ([8]; paclitaxel 10 mg/kg i.v. once a week, carboplatin 30 mg/kg i.v. once a week, Compound 5 100 mg/kg orally once per day from Day 15): 5.19 ± 0.62; mRECIST [5, 13]: 2/2 PD; RTV on Day 35 after administration (mean ± standard error) [9, 14]: 8.02 ± 1.30; T/C on Day 35 after administration (%) [9, 14]: 52.14%; mRECIST ([9]; animals per class): 5/5 PD; antitumor activity (conclusion in words) ([9]; mouse, in vivo): moderate antitumor activity; Overall regression rate (ORR), % ([9]; proportion of animals with CR or PR): 0%; Disease control rate (DCR), % ([9]; proportion of animals with CR, PR or SD): 0%"
"Cc1[nH]c2ccccc2c1CCNCc1ccc(/C=C/C(=O)NO)cc1 [panobinostat, reference compound]",,,,,,,,,,,,,,RTV on Day 14 after administration (mean ± standard error) [10]: 2.06 ± 0.29; T/C on Day 14 after administration (%) [10]: 57.54%

# Reference: patent US20230381176A1, “A PHARMACEUTICAL COMPOSITION AND USE THEREOF FOR TREATMENT OF CANCER” (Ascentage Pharma (Suzhou) Co., Ltd., priority 2020, published 2023)
